Laboratory results reported in patent US9017692B2, “Antimicrobial agent, bacterial strain, biosynthesis, and methods of use” (priority 2011, dated 2015).
≈ marks a conversion by molar mass, not a printed value.

Columns and labels:
MSSA ATCC 29213 SAU.42 = assay: microbe, parasite or virus in culture
Protocol: (§1) The activity of paenibacterin against several strains of Gram-positive and Gram-negative foodborne pathogens is summarized in Table 10. The data is reported as minimum inhibitory concentrations (MIC) as an average of three replicates for paenibacterin against the various listed bacterial strains. […] MICs were determined according to the CLSI broth microdilution method (see, Clinical and Laboratory Standards Institute (CLSI). 2009. Methods for dilution antimicrobial susceptibility tests for bacteria that grow aerobically; approved standard. […]. CLSI, Wayne, Pa.). Briefly, HPLC-purified paenibacterin was dissolved in methanol and diluted to appropriate concentration with cation-adjusted Mueller-Hinton II broth (Difco). Aliquots (25 μl) of serially-diluted paenibacterin was dispensed into wells of a 96-well plate; an equal amount of 1/10 diluted overnight bacterial culture was added to wells. Plates were incubated at 35° C. for 24 h. Cell growth after incubation was examined and determined using a microtiter plate reader at 600 nm. Concentration of paenibacterin is determined based on a molecular weight of 1604 Da.
(§2) The activity of paenibacterin was further tested against clinical isolates of the following Gram-positive bacteria: methicillin-sensitive Staphylococcus aureus (MSSA), methicillin-resistant S. aureus (MRSA), vancomycin-sensitive Enterococcus faecalis, vancomycin-resistant E. faecalis (VRE), Streptococcus pneumoniae, and laboratory derived daptomycin-resistant (DR) MSSA, MRSA, and VRE strains. The MICs were determined using the above described CLSI broth microdilution method, in which the method was performed with non-binding surface coated (NBS) 96-well plates.

[1] = system: DS-VRE ATCC 700802 EFS.807; assay: microbe, parasite or virus in culture
Protocol: as §1, §2

[2] = system: DR-VRE from EFS.807 EFS.2731; assay: microbe, parasite or virus in culture
Protocol: as §1, §2

WT ATCC 49619 SPN.31 = assay: microbe, parasite or virus in culture
Protocol: as §1, §2

[3] = system: DR-MSSA from SAU.42 SAU.278; assay: microbe, parasite or virus in culture
Protocol: as §1, §2

[4] = system: DR-MRSA from MW2 SP SAU.1616; assay: microbe, parasite or virus in culture
Protocol: as §1, §2

WT ATCC 29212 EFS.43 = assay: microbe, parasite or virus in culture
Protocol: as §1, §2

MRSA ATCC 43300 SAU.399 = assay: microbe, parasite or virus in culture
Protocol: as §1, §2

ABA.2232 = assay: MIC, CLSI broth microdilution, Gram-negative clinical isolates; assay type: cell-based, Acinetobacter baumannii
Protocol: (§3) Plates were incubated at 35° C. for 24 h.
(§4) The activity of paenibacterin was also tested against clinical isolates of the following Gram-negative bacterial strains: four strains of the species Pseudomonas aeruginosa (PAE), three strains of the species Acinetobacter baumannii (ABA), two strains of the species Escherichia coli (ECO), and four strains of the species Klebsiella pneumoniae (KPN). Particularly, the strains of Gram-negative bacteria included polymyxin B-resistant (PMB-R) and polymyxin B-sensitive (PMB-S) strains of each above listed species. The MICs were determined using the above described CLSI broth microdilution method, in which the method was performed with both non-binding surface coated (NBS) and polystyrene (PS) 96-well plates (Tables 11 and 12, respectively). The MICs were generally lower in the NBS 96-well plates as compared to the PS 96-well plates.

ABA.2315 = assay: as above; assay type: cell-based, Acinetobacter baumannii
Protocol: as §3, §4

ABA.1570 = assay: as above; assay type: cell-based, Acinetobacter baumannii
Protocol: as §3, §4

PAE.44 = assay: as above; assay type: cell-based, Pseudomonas aeruginosa
Protocol: as §3, §4

PAE.999 = assay: as above; assay type: cell-based, Pseudomonas aeruginosa
Protocol: as §3, §4

PAE.2281 = assay: as above; assay type: cell-based, Pseudomonas aeruginosa
Protocol: as §3, §4

PAE.2325 = assay: as above; assay type: cell-based, Pseudomonas aeruginosa
Protocol: as §3, §4

ATCC 25922 ECO.35 = assay: as above; assay type: cell-based, Escherichia coli
Protocol: as §3, §4

ECO.2276 = assay: as above; assay type: cell-based, Escherichia coli
Protocol: as §3, §4

PMB-S, KPN.2461 = assay: as above; assay type: cell-based, Klebsiella pneumoniae
Protocol: as §3, §4

KPN.2317 = assay: as above; assay type: cell-based, Klebsiella pneumoniae
Protocol: as §3, §4

PMB-R, KPN.2463 = assay: as above; assay type: cell-based, Klebsiella pneumoniae
Protocol: as §3, §4

KPN.674 = assay: as above; assay type: cell-based, Klebsiella pneumoniae
Protocol: as §3, §4

## CCCCCCCCCC(=O)N[C@@H](Cc1c[nH]c2ccccc12)C(=O)N[C@H](CC(N)=O)C(=O)N[C@@H](CC(=O)O)C(=O)N[C@@H]1C(=O)NCC(=O)N[C@@H](CCCN)C(=O)N[C@@H](CC(=O)O)C(=O)N[C@H](C)C(=O)N[C@@H](CC(=O)O)C(=O)NCC(=O)N[C@H](CO)C(=O)N[C@@H]([C@H](C)CC(=O)O)C(=O)N[C@@H](CC(=O)c2ccccc2N)C(=O)O[C@@H]1C [daptomycin]
MSSA ATCC 29213 SAU.42; ATCC 29213
  Minimum inhibitory concentration (MIC): 0.5 µg/mL (≈ 0.309 µM)
[1]; ATCC 700802
  Minimum inhibitory concentration (MIC): 1 µg/mL (≈ 0.617 µM)
[2]; EFS.2731, DR-VRE from EFS.807, NBS 96-well plates
  Minimum inhibitory concentration (MIC): >32 µg/mL
WT ATCC 49619 SPN.31; ATCC 49619
  Minimum inhibitory concentration (MIC): 0.5 µg/mL (≈ 0.309 µM)
[3]; SAU.278, DR-MSSA from SAU.42, NBS 96-well plates
  Minimum inhibitory concentration (MIC): 8 µg/mL (≈ 4.94 µM)
[4]; SAU.1616, DR-MRSA from MW2 SP, NBS 96-well plates
  Minimum inhibitory concentration (MIC): 16 µg/mL (≈ 9.87 µM)
WT ATCC 29212 EFS.43; ATCC 29212
  Minimum inhibitory concentration (MIC): 2 µg/mL (≈ 1.23 µM)
MRSA ATCC 43300 SAU.399; ATCC 43300
  Minimum inhibitory concentration (MIC): 0.5 µg/mL (≈ 0.309 µM)

## CN[C@H](CC(C)C)C(=O)N[C@H]1C(=O)N[C@@H](CC(N)=O)C(=O)N[C@H]2C(=O)N[C@H]3C(=O)N[C@H](C(=O)N[C@H](C(=O)O)c4cc(O)cc(O)c4-c4cc3ccc4O)[C@H](O)c3ccc(c(Cl)c3)Oc3cc2cc(c3O[C@@H]2O[C@H](CO)[C@@H](O)[C@H](O)[C@H]2O[C@H]2C[C@](C)(N)[C@H](O)[C@H](C)O2)Oc2ccc(cc2Cl)[C@H]1O [vancomycin]
MSSA ATCC 29213 SAU.42; Staphylococcus aureus, ATCC29213|MSSA, read-out: Minimum inhibitory concentration (MIC)
  MIC: 1 µg/mL (≈ 0.69 µM)
[1]; Enterococcus faecalis, ATCC700802|VRE, read-out: Minimum inhibitory concentration (MIC)
  MIC: 16 to 32 µg/mL (≈ 11 to 22.1 µM)
[2]; Enterococcus faecalis, VRE, read-out: Minimum inhibitory concentration (MIC)
  MIC: 32 µg/mL (≈ 22.1 µM)
WT ATCC 49619 SPN.31; Streptococcus pneumoniae, ATCC49619, read-out: Minimum inhibitory concentration (MIC)
  MIC: 16 µg/mL (≈ 11 µM)
[3]; Staphylococcus aureus, MSSA, read-out: Minimum inhibitory concentration (MIC)
  MIC: 2 µg/mL (≈ 1.38 µM)
[4]; Staphylococcus aureus, MRSA, read-out: Minimum inhibitory concentration (MIC)
  MIC: 2 µg/mL (≈ 1.38 µM)
WT ATCC 29212 EFS.43; Enterococcus faecalis, ATCC29212, read-out: Minimum inhibitory concentration (MIC)
  MIC: 2 to 4 µg/mL (≈ 1.38 to 2.76 µM)
MRSA ATCC 43300 SAU.399; Staphylococcus aureus, ATCC43300|MRSA, read-out: Minimum inhibitory concentration (MIC)
  MIC: 2 µg/mL (≈ 1.38 µM)

## polymyxin B sulfate
ABA.2232; NBS 96-well plates
  Minimum inhibitory concentration (MIC): 0.06 µg/mL
ABA.2232; PS 96-well plates
  Minimum inhibitory concentration (MIC): 2 µg/mL
ABA.2315; NBS 96-well plates
  Minimum inhibitory concentration (MIC): 8 µg/mL
ABA.2315; PS 96-well plates
  Minimum inhibitory concentration (MIC): 64 µg/mL
ABA.1570; NBS 96-well plates
  Minimum inhibitory concentration (MIC): 0.0625 µg/mL
ABA.1570; NBS 96-well plates, listed as polymyxin B
  Minimum inhibitory concentration (MIC): 0.06 µg/mL
ABA.1570; PS 96-well plates
  Minimum inhibitory concentration (MIC): 2 µg/mL
PAE.44; non-binding surface coated (NBS) 96-well plates
  Minimum inhibitory concentration (MIC): 0.125 µg/mL
PAE.44; polystyrene (PS) 96-well plates
  Minimum inhibitory concentration (MIC): 2 µg/mL
PAE.999; NBS 96-well plates
  Minimum inhibitory concentration (MIC): 0.25 µg/mL
PAE.999; PS 96-well plates
  Minimum inhibitory concentration (MIC): 2 µg/mL
PAE.2281; NBS 96-well plates
  Minimum inhibitory concentration (MIC): 16 µg/mL
PAE.2281; PS 96-well plates
  Minimum inhibitory concentration (MIC): 16 µg/mL
PAE.2325; NBS 96-well plates
  Minimum inhibitory concentration (MIC): 0.25 µg/mL
PAE.2325; PS 96-well plates
  Minimum inhibitory concentration (MIC): 2 µg/mL
ATCC 25922 ECO.35; ECO.35 (ATCC 25922), NBS 96-well plates
  Minimum inhibitory concentration (MIC): 0.06 µg/mL
ATCC 25922 ECO.35; ECO.35, PS 96-well plates
  Minimum inhibitory concentration (MIC): 2 µg/mL
ECO.2276; NBS 96-well plates
  Minimum inhibitory concentration (MIC): 8 µg/mL
ECO.2276; PS 96-well plates
  Minimum inhibitory concentration (MIC): 8 µg/mL
PMB-S, KPN.2461; KPN.2461 (PMB-S), NBS 96-well plates
  Minimum inhibitory concentration (MIC): 0.06 to 0.13 µg/mL
PMB-S, KPN.2461; KPN.2461, PS 96-well plates
  Minimum inhibitory concentration (MIC): 2 µg/mL
KPN.2317; NBS 96-well plates
  Minimum inhibitory concentration (MIC): >64 µg/mL
KPN.2317; PS 96-well plates
  Minimum inhibitory concentration (MIC): >64 µg/mL
PMB-R, KPN.2463; KPN.2463 (PMB-R), NBS 96-well plates
  Minimum inhibitory concentration (MIC): 2 to 8 µg/mL
PMB-R, KPN.2463; KPN.2463, PS 96-well plates
  Minimum inhibitory concentration (MIC): 32 µg/mL
KPN.674; NBS 96-well plates
  Minimum inhibitory concentration (MIC): 0.125 µg/mL
KPN.674; PS 96-well plates
  Minimum inhibitory concentration (MIC): 2 µg/mL
